Legend:
IRAK4 = biological target: T1, IRAK4 (Homo sapiens, UniProt Q9NWZ3); assay: IRAK4 MSD degradation in OCI-LY10; assay type: cell-based; conditions: OCI-LY10 cells, 24 hrs, Meso Scale Discovery; read-out: IRAK4 MSD degradation in OCI-LY10 at 24 hrs: Average external-Abs DC50
T1 construct: endogenous in cells; host or cells: OCI-LY10
T1 sequence (Q9NWZ3 1-460): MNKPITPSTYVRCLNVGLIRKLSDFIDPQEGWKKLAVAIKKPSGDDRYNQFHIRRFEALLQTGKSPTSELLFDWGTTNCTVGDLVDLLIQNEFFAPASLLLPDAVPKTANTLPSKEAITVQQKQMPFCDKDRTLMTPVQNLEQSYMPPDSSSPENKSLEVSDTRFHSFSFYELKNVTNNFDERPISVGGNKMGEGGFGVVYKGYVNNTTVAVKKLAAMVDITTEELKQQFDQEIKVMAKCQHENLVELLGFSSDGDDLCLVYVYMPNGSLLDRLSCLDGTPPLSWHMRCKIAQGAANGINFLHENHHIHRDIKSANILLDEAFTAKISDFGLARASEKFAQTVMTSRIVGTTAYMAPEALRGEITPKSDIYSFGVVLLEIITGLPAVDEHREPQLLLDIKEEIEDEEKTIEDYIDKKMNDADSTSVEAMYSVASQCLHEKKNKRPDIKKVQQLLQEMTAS
Description: Degradation of IRAK4 in OCI-LY10 was quantitatively measured using Meso Scale Discovery technology. OCI-LY10 cells were seeded in 96-well plates (Corning 3799) with a density of 300,000 cells per well in 100 μL fresh media. Compounds were then added to the assay plates with a final top concentration of 1 to 10 μM in a 1:3 dilution series with total of 8 doses. The assay plates were then incubated for 4 to 24 hours at 37 under 5% CO2. The assay plates were then centrifuged for 5 minutes and the cell pellets were treated with 100 μL/well RIPA lysis buffer (Boston BioProducts BP-115D) with proteinase inhibitors. To prepare MSD assay plates (Meso Scale Discovery Catalog number L15XA-3), the plates were coated with 2 μg/mL capture antibody (mouse Anti-IRAK4 antibody [2H9], ab119942) in PBS, at 40 μL/well. […] The assay plates were then incubated at room temperature for 1 hour, washed 3 times with 150 μL/well TBST buffer, and 150 μL/well MSD reading buffer (Meso Scale Discovery catalog number R92TC-2) was added. The plates were then analyzed by a MSD reader (Meso Scale Discovery, Model Quick Plex SQ 120). The data was then analyzed by software Prism 7.0 from GraphPad and the dose-depended IRAK4 degradation were fit using a three-parameter logistic equation to calculate DC50. […]

OCI-LY10 cells = assay: CTG Cell Viability Assay with OCI-LY10; assay type: cell-based; conditions: Homo sapiens, 96 h, 4 days, CellTiter-Glo, read-out: CTG Cell Viability in OCI-LY10: Average external DC50
Description: Compound-mediated viability effect on OCI-LY10 or TMD8 was quantitatively determined using the CellTiter-Glo® Luminescent Cell Viability Assay kit from Promega (Catalog number G7570) following manufacturer's recommended procedures. Briefly, OCI-LY10 cells were seeded into 384 well plates (Grenier Bio-One, Catalog number 781080) with a density of 10,000 cells per well. Compounds were then added to the assay plate with final top concentration of 10 μM and 1:3 dilution series with total of 9 doses. The final DMSO concentration was normalized to 0.2%. The assay plates were incubated at 37° C. for 4 days under 5% CO2. Then the assay plate was equilibrated at room temperature for 10 minutes. To determine cell viability, 30 μL Cell Titer Glo reagent was added to each well and the assay plate was centrifuged at 1000 rpm for 30 second, incubated at room temperature for 10 min, and analyzed by detecting the luminescence using a multimode plate reader (EnVision 2105, PerkinElmer). The data was then analyzed by software Prism 7.0 from GraphPad and the dose response curves were fit using a three-parameter logistic equation to calculate IC50.
The letter codes for IRAK4 IC50 include: A (<0.05 μM), B (0.05-0.1 μM), C (0.1-0.5 μM), D (0.5-1.0 μM), and E (>1.0 μM).

SMILES: [2H]C([2H])([2H])C(O)(c1cc2nc([C@H]3CC[C@H](CN4CC5(CC(CCNc6cccc7c6C(=O)N(C6CCC(=O)NC6=O)C7=O)C5)C4)CC3)sc2cc1NC(=O)c1cccc(C(F)(F)F)n1)C([2H])([2H])[2H] (some centres unmarked) [Compound I-1, N-[2-[4-[[6-[2-[[2-(2,6-dioxo-3-piperidyl)-1,3-dioxo-isoindolin-4-yl]amino]ethyl]-2-azaspiro[3.3]heptan-2-yl]methyl]cyclohexyl]-5-[2,2,2-trideuterio-1-hydroxy-1-(trideuteriomethyl)ethyl]-1,3-benzothiazol-6-yl]-6-(trifluoromethyl)pyridine-2-carboxamide]
- DC50 (IRAK4): < 10 nM
- IC50 (OCI-LY10 cells): 100 to 500 nM
